From patent US20240011027A1, “METHODS AND COMPOSITIONS FOR RESTORING STMN2 LEVELS” (President and Fellows of Harvard College, priority 2020, published 2024) come the findings set out here.

Holding throughout (type): cell-based, human
Experiment [1] has as its system TDP-43. The experiment is described as follows: immunoblot of TDP-43 in detergent-soluble (RIPA) and detergent-insoluble (UREA) fractions after MG-132. Here is the method: (§1) To determine what happened to TDP-43 after proteasome inhibition, TDP-43 levels were examined by immunoblot analysis in both the detergent-soluble and detergent-insoluble fractions. […] Finally, STMN2 levels in neurons treated with either a short-term high dose or a long-term low dose of MG-132 were probed.
For analysis of TDP-43 and STMN2 protein expression levels, d10 MNs were lysed in RIPA buffer (150 mM Sodium Chloride; 1% Triton X-100; 0.5% sodium deoxycholate; 0.1% SDS; 50 mM Tris pH 8.0) containing protease and phosphatase inhibitors (Roche) for 20 min on ice, and centrifuged at high speed. 200 μL of RIPA buffer per well of 24-well culture were routinely used, which yielded ˜20 μg of total protein as determined by BCA (Thermo Scientific). After two washes with RIPA buffer, insoluble pellets were resuspended in 200 μl of UREA buffer (Bio-Rad). For immunoblot assays 2-3 μg of total protein were separated by SDS-PAGE (BioRad), transferred to PDVF membranes (BioRad) and probed with antibodies against TDP-43 (1:1000, ProteinTech Group), GAPDH (1:1000, Millipore) and STMN2 (1:3000, Novus). Insoluble pellets were loaded based on protein concentration of correspondent RIPA-soluble counterparts. […] GAPDH levels were used to normalized each sample, and LiCor software was used to quantitate protein band signal.
In general terms: A western blot detects proteins with antibodies after separation by electrophoresis.

The next experiment has as its system STMN2 cryptic exon. Kind of experiment: RT-PCR detection of transcripts containing the STMN2 cryptic exon in hMNs treated with proteasome inhibitors.
For experiment [2], the system named is STMN2. The experiment is described as follows: STMN2 mRNA expression in HUES3, IG2 (Stmn2 KO) and CN7 (cryptic exon deletion) lines stressed with MG132. The settings on record: 1 uM for 24 hours. As to the method:
Three cell lines, HUES3, IG2 (Stmn2 KO), and CN7 (cryptic exon deletion) were treated with normal media or media+1 uM MG132 for 24 hours to stress the cells. In HUES3 cells, the stressed condition had 52% STMN2 mRNA expression compared to the unstressed condition. In IG2 (Stmn2 KO) condition, unstressed cells had 13% expression, and when stressed, expression increased to 42%. […] It was shown that if several exons are knocked out the expression goes down, but if the TDP-43 binding site is removed, expression goes way up.

The test system of another experiment is proteasome. The experiment is described as follows: proteasome activity assay in hMNs treated with MG-132. The settings on record: overnight 1 μM treatment.
Experiment [3] relates to STMN2. Kind of experiment: qRT-PCR of STMN2 expression in hMNs treated with proteasome inhibitors. The settings on record: short-term high dose or long-term low dose. As to the method:
as §1
Total RNA was isolated from d10 MNs for RNA-Seq experiments and validation assays using Trizol LS (Invitrogen) according to manufacturer's instructions. 500 μL were added per well of the 24-well cultures. A total of 300-1000 ng of total RNA was used to synthesize cDNA by reverse transcription according to the iSCRIPT kit (Bio-rad). Quantitative RT-PCR (qRT-PCR) was then performed using SYBR green (Bio-Rad) and the iCycler system (Bio-rad). Quantitative levels for all genes assayed were normalized using GAPDH expression. […] All primer sequences are available upon request. For next-generation RNA sequencing (RNA-Seq), at least two technical replicas per siRNA sample or AAVS1-TDP43 genotype were included in the analyses. After RNA extraction, samples with RNA integrity numbers (RIN) above 7.5, determined by a bioAnalyzer, were used for library preparation. […] All FASTQ files were analyzed using the bcbioRNASeq workflow and toolchain (90). […]
A general note: Real-time PCR tracks product formation cycle by cycle.

Experiment [4] has as its system TDP-43. Kind of experiment: TDP-43 localization by immunostaining, Pearson's correlation with DAPI, after MG-132 pulse-chase. Here is the method: For immunofluorescence, cells were fixed with ice-cold 4% PFA for 15 minutes at 4° C., permeabilized with 0.2% Triton-X in lx PBS for 45 minutes and blocked with 10% donkey serum in lx PBS-T (0.1% Tween-20) for 1 hour. Cells were then incubated overnight at 4° C. with primary antibody (diluted in blocking solution). At least 4 washes (5 min incubation each) with 1×PBS-T were carried out, before incubating the cells with secondary antibodies for 1 hour at room temperature (diluted in blocking solution). Nuclei were stained with DAPI. The following antibodies were used in this study: Hb9 (1:100, DSHB, MNR2 81.5C10-c), TUJ1 (1:1000, Sigma, T2200), MAP2 (1:10000, Abcam ab5392), Ki67 (1:400, Abcam, ab833), GFP (1:500, Life Technologies™, A10262), Islet1 (1:500, Abcam ab20670), TDP-43 (1:500, ProteinTech Group), STMN2 (1:4000, Novus), AlexaFluor™ 647-Phalloidin (1:200,). Secondary antibodies used (488, 555, 594, and 647) were AlexaFluor™ (1:1000, Life Technologies™) and DyLight (1:500, Jackson ImmunoResearch Laboratories). Micrographs were analyzed using FIJI software to determine the correlation coefficient.

The next experiment has as its system STMN2 RNA. Kind of experiment: qRT-PCR of full-length STMN2 after proteasome inhibition with MG-132 in patient's motor neurons. The settings on record: MG-132 (1 uM); patient's neurons. An excerpt: It was established that ASO (SJ+94) and ASO (SJ-1) suppressed cryptic splicing of STMN2 and restored full length STMN2 RNA in the patient's motor neurons when there is a reduction in nuclear TDP-43. […] Post-mortem tissue studies have shown that TDP-43 mis-localization and its aggregation in cytoplasm is a hallmark of sporadic ALS. Several groups have reported cytoplasmic aggregation of TDP-43 akin to that observed in post-mortem tissue of sporadic ALS patients occurs in response to pharmacological inhibition of the proteasome (1, 4).

Where a SMILES comes first, the peptide text is derived from it. The star is where a group is joined. Cbz = O=C(OCc1ccccc1)*

Method for STMN2 cryptic exon: It was then asked if cryptic exon inclusion could be contributing to decreased STMN2 levels in hMNs after proteasome inhibition. To accomplish this goal, an RT-PCR assay was developed to detect transcripts containing the cryptic exon (FIG. 5F). […] Total RNA was isolated from neurons using RNeasy Mini Kit (Qiagen) according to manufacturer's instructions. A total of 300-1000 ng of total RNA was used to synthesize cDNA by reverse transcription according to the iSCRIPT kit (Bio-rad). RT-PCR was then performed using one cryptic exon-specific primer and then analyzed using the Agilent 2200 Tapestation.

`CC(C)C[C@@H](C=O)NC(=O)[C@H](CC(C)C)NC(=O)[C@H](CC(C)C)NC(=O)OCc1ccccc1` [MG-132] (Cbz-Leu-Leu-Leu-aldehyde): the “TDP-43 levels in soluble lysates” value in the experiment with TDP-43 [1] (control neurons treated with a low dose) is “significantly decreased TDP-43 levels”. The “TDP-43 in UREA (insoluble) fraction” value with TDP-43 [1] (proteasome inhibition) was “triggers TDP-43 to become insoluble”. Also, the “transcripts containing the STMN2 cryptic exon (PCR assay)” value in the experiment with STMN2 cryptic exon was “presence of transcripts containing the STMN2 cryptic exon”. The “STMN2 mRNA expression” value in the experiment with STMN2 [2] (CN7 (Cryptic Exon Deletion) cells, unstressed 729%) came out at 473%; with STMN2 [2] (IG2 (Stmn2 KO) cells, unstressed 13%) it was 42%. Further, the “STMN2 mRNA expression compared to the unstressed condition” value in the experiment on STMN2 [2] (HUES3 cells) is 52%. For the same molecule, in the experiment on proteasome, the proteasome activity entry is reported as “less than 10 % of normal activity”. The “STMN2 mRNA levels” value in the experiment on STMN2 [3] is “significant decreases”. Further, the “TDP-43 staining in the nucleus” value in the experiment with TDP-43 [4] (24 hour 1 μM pulse, hMNs) is listed as “greatly diminished”. Further, the “TDP-43 staining following washout” value in the experiment with TDP-43 [4] (after 24 hour 1 μM pulse and washout) is reported as “indistinguishable to unchallenged neurons after 4 days”. The “STMN2 expression after proteasome inhibition” value with STMN2 RNA was “decreased STMN2 expression”.
